In patent US20250051762A1, “PLATFORM USING DNA-ENCODED SMALL MOLECULE LIBRARIES AND RNA SELECTION TO DESIGN SMALL MOLECULES THAT TARGET RNA” (University of Florida Research Foundation, Incorporated, priority 2021, published 2025):

Columns and labels:
ZBTB10 = assay: Western blot of ZBTB10 in MDA-MB-231 cells; type: cell-based, human; conditions: relative to β-actin, 48 h
mutant pri-miR-27a = assay: Competitive MST binding assay with unlabeled mutated pri-miR-27a; parameters: species or system human; conditions: two 5′GAG/3′CCC loops mutated to base pairs
Description: To measure the affinity of 9 for the 5′GAG/3′CCC loop in the context of pri-miR-27a, a competitive binding assay was used with a constant concentration of compound (100 nM) and the Cy5-labeled model of pri-miR-27a's Drosha site, and varying concentrations of unlabeled miR-27a precursor as reported by miRBase. (35) That is, the miR-27a precursor competes with the Cy5-labeled model of pri-miR-27a's Drosha site for binding 9. […] Thus, the compounds identified by using DEL-2DCS can bind avidly to biologically relevant RNA targets identified by Inforna.
For competitive binding assays, both WT and mutant pri-miR-27a RNAs were transcribed as previously described (see Table S6 for sequences). (11) The RNA was purified by gel electrophoresis and folded in 1× Binding Buffer at final concentration of 750 nM by heating at 60° C. for 5 min and then slowly cooling to room temperature. […] The resulting data were analyzed by SigmaPlot and fitted by Equation 2 to yield the competitive dissociation constant (Kd competitive).
where F is the concentration of fluorescence-labeled RNA; unbound and bound refers to the thermophoresis signal at completely unbound and bound state of RNA, respectively; c is the concentration of the compound; f (c) is the thermophoresis signal at compound concentration of c; Kd is the dissociation constant. […]

[1] = tested on: MCF-10a cells expressing mutant pri-miR-27a; assay: Migration of MCF-10a cells expressing mutant pri-miR-27a; type: cell-based, human; conditions: forced expression of mutated pri-miR-27a
Description: (§1) MCF-10a cells were transfected with plasmids to express pri-miR-27a and mutant pri-miR-27a in 12- or 24-well plates with Lipofectamine 2000 per the manufacturer's protocol. For treatment of compounds, stocks were diluted in growth medium and added to cells for 48 h. The miRCURY miR-27a LNA inhibitor (QIAGEN, Cat #339121) was used as a positive control by diluting in growth medium to a final concentration of 1 nM. The miRCURY LNA Negative Control (QIAGEN, Cat #YI00199007-DDA) was used as a negative control, which has also diluted in growth medium to a final concentration of 1 nM.
(§2) Migration assay: MDA-MB-231 cells were grown in 60 mm diameter dishes and treated as described in “Cell culture and compound treatment” for 12 h. The medium was then removed and replaced with growth medium lacking FBS but with the same concentration of compound. After 12 h of serum starvation, the cells were detached and seeded to ThinCert™ (GBO) 24-well hanging inserts with 8 μm pores (˜5×10^4 cells per insert). Fresh growth medium with FBS was dispended in a 24-well plate (600 μL each well), and the ThinCert™ hanging inserts containing cells were then placed into the wells. After incubating for 24 h, the growth medium in the inserts was removed, and the remaining cells were washed twice with 1×DPBS. […] The remaining cells were then imaged by microscopy and counted for quantification (3 fields of view per sample).

[2] = tested on: MCF-10a cells that express WT pri-miR-27a; assay: Migration of MCF-10a cells expressing WT pri-miR-27a; type: cell-based, human
Description: as §1, §2

In the case of C#CCN(CC(N)=O)C(=O)C[C@H](Cc1c[nH]c2ccccc12)NC(=O)[C@@H]1C[C@H](NC(=O)Cn2c(=O)[nH]c3ccccc3c2=O)CN1 [Compound 9], the ZBTB10 expression (ZBTB10) is reported as “upregulation”, the “binding (competitive)” value (mutant pri-miR-27a) is reported as “binding was abolished” and the “rescue of migratory phenotype” value [1] is reported as “did not inhibit biogenesis of the mutated pri-miR-27a in MCF-10A (FIG. 3B) or rescue the migratory phenotype”. For the same molecule, the migration [2] was “reduced migration”.
